In patent publication US20260306525A1, “COMBINATION THERAPY GLUCOCORTICOIDS AND GINSENOSIDE” (FYTAGORAS B.V., priority 2023, published 2026):

What was measured:
Format in all cases: in vivo, zebrafish (Danio rerio)
[1] = test system: pck1; assay: qPCR pck1 expression in zebrafish larvae; settings: for pck1 expression, short-term treatment / pck1 expression, long-term treatment: 5 dpf, beclomethasone 10 μM, Rg1 50 μM or combination; for pck1 expression, long-term treatment: 5 days
Method: (§1) […] Groups of 15 larvae were collected in TRIzol reagent (ThermoFisher) and total RNA was isolated using miRNeasy mini kit (Qiagen, Hilden, Germany). For experiments in HeLa cells, cells were seeded in 6 well plates and after treatment, the cells were removed from the wells using TRIzol reagent and mRNA was isolated using miRNeasy mini kit (Qiagen) according to the manufacturer's instructions. The RNA samples were DNAse-treated utilizing the DNA-free™ DNA Removal Kit (ThermoFisher Scientific). The cDNA synthesis was performed using the iScript cDNA synthesis kit (Bio-Rad Laboratories, Hercules, CA, USA) using 1 μg of RNA per sample. For qPCR, 10 μM of forward primer and 10 μM of reverse primer, 12.5 μl of IQ SYBR Green Supermix (Bio-Rad Laboratories), and 2 μl of cDNA were added to the qPCR reaction mixture. […] The qPCR reactions were performed on a MyiQ-single-color real-time PCR detection system (Bio-Rad Laboratories), with initial denaturation for 3 min, 95° C., and 40 cycles of 15 s at 95.5° C., 15 s at 60° C., and 30 s at 72° C. Cycle threshold values (Ct values, i.e. the cycle numbers at which a threshold value of the fluorescence intensity was reached) were determined for each sample. The gene expression level for each sample was normalized using the expression of ppial (peptidylprolyl isomerase Ab (cyclophilin A)) for zebrafish samples, and 18S rRNA for human cells. The fold change per sample (compared to the respective control group) was calculated using the […]Ct method.
(§2) […] Per sample, groups of 15 larvae were collected in TRIzol reagent (Thermo Fisher Scientific, Waltham, MA, USA), and total RNA was isolated using the miRNeasy mini kit (Qiagen, Hilden, Germany). For similar experiments in Hela cells, cells were seeded in 6 well plates, and after 6 h of chemical treatment, the cells were removed from the wells using TRIzol reagent, and total RNA was isolated using the miRNeasy mini kit according to the manufacturer's instructions. The RNA samples were DNAse-treated utilizing the DNA-free™ DNA Removal Kit (Thermo Fisher Scientific). The cDNA synthesis was performed using the iScript cDNA synthesis kit (Bio-Rad Laboratories, Hercules, CA, USA) using 1 μg of RNA per sample. For the PCR reactions, 10 μM of forward and 10 μM of reverse primer, 12.5 μl of iQ SYBR Green Supermix (Bio-Rad), and 2 μl of cDNA were added to the qPCR reaction mixture. […] The reactions were performed on a MyiQ-single-color real-time PCR detection system (Bio-Rad Laboratories) with initial denaturation for 3 min at 95° C. and 40 cycles of 15 s at 95.5° C., 15 s at 60° C., and 30 s at 72° C. Cycle threshold values (Ct values, i.e. the cycle numbers at which a threshold value of the fluorescence intensity was reached) were determined for each sample. The gene expression level for each sample was normalized using the expression of ppial (peptidylprolyl isomerase Ab (cyclophilin A)) for zebrafish samples, 18S rRNA for human cells. The fold change per sample (compared to the respective control group) was calculated using the ΔΔCt method.

[2] = test system: fkbp5; assay: qPCR fkbp5 expression in zebrafish larvae; settings: for fkbp5 expression, short-term treatment / fkbp5 expression, long-term treatment: beclomethasone 10 μM, Rg1 50 μM or combination; for fkbp5 expression, long-term treatment: 5 days
Method: as §1, §2

[3] = test system: mmp13; assay: qPCR mmp13 expression in zebrafish larvae; settings: Example 2, wounded larvae
Method: (§3) To determine mRNA levels of specific genes in zebrafish, 3 dpf larvae were used (wounded and non-wounded) and after 6 h of chemical treatments (2 h pre-wounding, 4 h post-wounding), as indicated. Per sample, groups of 15 larvae were collected in TRIzol reagent (Thermo Fisher Scientific, Waltham, MA, USA), and total RNA was isolated using the miRNeasy mini kit (Qiagen, Hilden, Germany). For similar experiments in Hela cells, cells were seeded in 6 well plates, and after 6 h of chemical treatment, the cells were removed from the wells using TRIzol reagent, and total RNA was isolated using the miRNeasy mini kit according to the manufacturer's instructions. The RNA samples were DNAse-treated utilizing the DNA-free™ DNA Removal Kit (Thermo Fisher Scientific). The cDNA synthesis was performed using the iScript cDNA synthesis kit (Bio-Rad Laboratories, Hercules, CA, USA) using 1 μg of RNA per sample. For the PCR reactions, 10 μM of forward and 10 μM of reverse primer, 12.5 μl of iQ SYBR Green Supermix (Bio-Rad), and 2 μl of cDNA were added to the qPCR reaction mixture. […] The reactions were performed on a MyiQ-single-color real-time PCR detection system (Bio-Rad Laboratories) with initial denaturation for 3 min at 95° C. and 40 cycles of 15 s at 95.5° C., 15 s at 60° C., and 30 s at 72° C. Cycle threshold values (Ct values, i.e. the cycle numbers at which a threshold value of the fluorescence intensity was reached) were determined for each sample. The gene expression level for each sample was normalized using the expression of ppial (peptidylprolyl isomerase Ab (cyclophilin A)) for zebrafish samples, 18S rRNA for human cells. The fold change per sample (compared to the respective control group) was calculated using the ΔΔCt method.

[4] = test system: il8; assay: qPCR il8 expression in zebrafish larvae; settings: Example 2, wounded larvae
Method: as §3

[5] = 3 dpf, wounded larvae, 6 h, 10 μM beclomethasone, 50 μM Rg1 or combination

SMILES | pck1 expression ([1]; Example 2, 6 h treatment) | fkbp5 expression ([2]; Example 2, 6 h treatment) | mmp13 expression [3] | il8 expression [4] | pck1 expression [1, 5] | pck1 expression, short-term treatment ([1]; 6 h) | pck1 expression, long-term treatment [1] | fkbp5 expression [2, 5] | fkbp5 expression, short-term treatment ([2]; 6 h) | fkbp5 expression, long-term treatment [2]
CC(C)=CCC[C@](C)(O)[C@H]1CC[C@]2(C)[C@@H]1[C@H](O)C[C@@H]1[C@@]3(C)CC[C@H](O)C(C)(C)[C@@H]3[C@@H](O[C@@H]3O[C@H](CO)[C@@H](O)[C@H](O)[C@H]3O)C[C@]12C [Rh1] | did not increase the expression | did not increase the expression | no effect | no effect |  |  |  |  |  | 
CC(C)=CCC[C@](C)(O[C@@H]1O[C@H](CO)[C@@H](O)[C@H](O)[C@H]1O)[C@H]1CC[C@]2(C)[C@@H]1[C@H](O)C[C@@H]1[C@@]3(C)CC[C@H](O)C(C)(C)[C@@H]3[C@@H](O)C[C@]12C [F1] | did not increase the expression | did not increase the expression | Only a minor effect | Only a minor effect |  |  |  |  |  | 
CC(C)=CCC[C@](C)(O[C@@H]1O[C@H](CO)[C@@H](O)[C@H](O)[C@H]1O)[C@H]1CC[C@]2(C)[C@@H]1[C@H](O)C[C@@H]1[C@@]3(C)CC[C@H](O)C(C)(C)[C@@H]3[C@@H](O[C@@H]3O[C@H](CO)[C@@H](O)[C@H](O)[C@H]3O)C[C@]12C [Rg1, (3β,6α, 12β)-3,12-Dihydroxydammar-24-ene-6,20-diyl bis-β-D-glucopyranoside] | did not increase the expression | did not increase the expression | no effect | no effect | did not affect the expression of these genes | did not affect the expression of the genes | did not affect the expression of the genes | did not affect the expression of these genes | did not affect the expression of the genes | did not affect the expression of the genes
C[C@H]1C[C@H]2[C@@H]3CCC4=CC(=O)C=C[C@]4(C)[C@@]3(Cl)[C@@H](O)C[C@]2(C)[C@@]1(O)C(=O)CO [beclomethasone, reference compound] |  |  |  |  | upregulated the expression of pck1 and fkbp5 | upregulated the expression | this upregulation of pck1 and nfkbiaa was significantly reduced after long-term treatment | upregulated the expression of pck1 and fkbp5 | upregulated the expression | the upregulation of fkbp5 did not decrease
CC(C)=CCC[C@](C)(O)[C@H]1CC[C@]2(C)[C@@H]1[C@H](O)C[C@@H]1[C@@]3(C)CC[C@H](O)C(C)(C)[C@@H]3[C@@H](O)C[C@]12C [PPT, Protopanaxatriol] | did not increase the expression | did not increase the expression | Only a minor effect | Only a minor effect |  |  |  |  |  | 
